Legend:
[1] = target: T1, Gaussia luciferase (GLase) (Gaussia princeps (in: crustaceans), UniProt Q9BLZ2); assay: luminescence inhibition with coelenterazine; type: biochemical; settings: coelenterazine 1.2 × 10^−4 M (so in the source); 1 μg each in 200 μL), 30 mM Tris-HCl, 10 mM EDTA, 1 min preincubation; no inhibitor = 100
T1 construct: C-terminal His tag, signal peptide removed by secretion; stably expressed in CHO-K1/dhfr- cells (pcDNA3-hGL-H), Ni column
T1 sequence (Q9BLZ2 18-185): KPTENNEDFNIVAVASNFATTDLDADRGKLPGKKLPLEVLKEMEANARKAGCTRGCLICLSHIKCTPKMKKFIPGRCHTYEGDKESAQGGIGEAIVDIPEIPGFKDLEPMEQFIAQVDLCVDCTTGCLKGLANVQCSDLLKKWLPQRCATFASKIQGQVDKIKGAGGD
From the text: luminescence inhibition with coelenterazine on Gaussia luciferase (GLase)

[2] = target: T2, native Oplophorus luciferase (OpLase) (Oplophorus gracilirostris, UniProt Q9GV45); assay: luminescence inhibition with coelenterazine; type: biochemical; settings: coelenterazine 1.2 × 10^−4 M (so in the source); 1 μg each in 200 μL), 30 mM Tris-HCl, 10 mM EDTA, 1 min preincubation; no inhibitor = 100
T2 construct: 19 kDa and 35 kDa subunits, 106 kDa; with Oplophorus-luciferin 2-monooxygenase non-catalytic subunit
T2 sequence (Q9GV45 28-196): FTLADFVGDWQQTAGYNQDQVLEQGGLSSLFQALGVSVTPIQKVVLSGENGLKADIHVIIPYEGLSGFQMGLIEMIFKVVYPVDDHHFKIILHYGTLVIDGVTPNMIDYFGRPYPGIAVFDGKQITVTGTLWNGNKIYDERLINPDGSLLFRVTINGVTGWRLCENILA
T2 sequence (Q9GV46 40-359 partner): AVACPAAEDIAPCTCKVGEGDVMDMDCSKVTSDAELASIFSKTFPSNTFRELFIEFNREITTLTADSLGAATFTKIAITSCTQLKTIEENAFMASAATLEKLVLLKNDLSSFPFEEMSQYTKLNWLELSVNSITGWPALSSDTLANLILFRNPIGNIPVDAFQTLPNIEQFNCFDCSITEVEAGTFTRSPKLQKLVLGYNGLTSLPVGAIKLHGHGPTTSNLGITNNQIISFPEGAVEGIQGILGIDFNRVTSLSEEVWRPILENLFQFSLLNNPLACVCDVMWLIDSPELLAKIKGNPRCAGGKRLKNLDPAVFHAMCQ
From the text: luminescence inhibition with coelenterazine on native Oplophorus luciferase (OpLase)

Relative luminescence activity (Imax, %) / GLase ^a [1]	Relative luminescence activity (Imax, %) / OpLase ^a [2]	Relative luminescence activity (Imax, %) / QL-nanoKAZ ^a [1]	Compound
23.5%	33.5%	–	O=C1c2cc(-c3ccc(O)cc3)cc(Cc3ccccc3)c2C[C@@]1(CO)Cc1ccc(O)cc1 [(R)-HM-daCTZ]
0.5%	5.1%	–	O=C1c2cc(-c3ccc(O)cc3)cc(Cc3ccccc3)c2C[C@H]1Cc1ccc(O)cc1 [(R)-daCTZ]
5.3%	19.7%	–	O=C1c2cc(-c3ccc(O)cc3)cc(Cc3ccccc3)c2C[C@]1(CO)Cc1ccc(O)cc1 [(S)-HM-daCTZ]
–	2.1%	0.4%	O=C1c2cc(-c3ccc(O)cc3)cc(Cc3ccccc3)c2C[C@@H]1Cc1ccc(O)cc1 [(S)-daCTZ]
